Reference: patent US20240174618A1, “SUBSTITUTED (2-HETEROARYLOXYPHENYL)SULFONATES, SALTS THEREOF AND THEIR USE AS HERBICIDAL AGENTS” (Bayer Aktiengesellschaft, priority 2021, published 2024)

Tests used:
Format in all cases: in vivo
[1] = test system: Alopecurus myosuroides (ALOMY); assay: A. Herbicidal pre-emergence efficacy, ALOMY; conditions: scored visually after about 3 weeks vs untreated controls
Procedure, shortened: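 Applied before emergence onto covering soil at rates of 1280 g/ha or less, using 600 L/ha spray water with 0.5% additive. Scoring: visual % efficacy after ~3 weeks, greenhouse.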

[2] = test system: Alopecurus myosuroides (ALOMY); assay: B. Herbicidal post-emergence efficacy, ALOMY; conditions: rated visually after about 3 weeks
Method: Seeds of mono- and dicotyledonous weed plants were placed in plastic pots in sandy loam soil (doubly sown with in each case one species of mono- or dicotyledonous weed plants per pot), covered with soil and cultivated in a greenhouse under controlled growth conditions. 2 to 3 weeks after sowing, the test plants were treated at the one-leaf stage. The compounds of the invention, formulated in the form of wettable powders (WP) or as emulsion concentrates (EC), were applied onto the green parts of the plants as aqueous suspension or emulsion with addition of 0.5% additive at a water application rate of 600 liters per hectare (converted). After the test plants had been kept in the greenhouse under optimum growth conditions for about 3 weeks, the activity of the preparations was rated visually in comparison to untreated controls.
For example, • 100% efficacy=plants have died, • 0% efficacy=like untreated control plants
Tables B1a to B12c below show the effects of selected inventive compounds of the general formula (I) according to table 1 on various harmful plants at an application rate corresponding to 1280 g/ha or less, which were obtained by the experimental procedure mentioned above.

[3] = test system: Echinochloa crus-galli (ECHCG); assay: B. Herbicidal post-emergence efficacy, ECHCG; conditions: rated visually after about 3 weeks
Procedure, shortened: (§1)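 Weeds grown in sandy loam in greenhouse and sprayed at the one-leaf stage, 2–3 weeks after sowing, with WP or EC formulations plus 0.5% additive at 600 L/ha water. Injury rated visually versus untreated controls after about 3 weeks (100% = dead, 0% = like control); rates up to 1280 g/ha.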

[4] = test system: Lolium rigidum (LOLRI); assay: B. Herbicidal post-emergence efficacy, LOLRI
Procedure, shortened: as §1

[5] = test system: Avena fatua (AVEFA); assay: C. Herbicidal pre-emergence efficacy, AVEFA; conditions: 320 g/ha, scored after about 3 weeks
Excerpt: (§2) Seeds of monocotyledonous and dicotyledonous weed plants and crop plants were placed in plastic or organic planting pots and covered with soil. The compounds of the invention, formulated in the form of wettable powders (WP) or as emulsion concentrates (EC), were then applied to the surface of the covering soil as aqueous suspension or emulsion with addition of 0.5% additive at a water application rate equivalent to 600 l/ha (converted). After the treatment, the pots were placed in a greenhouse and kept under good growth conditions for the test plants. After about 3 weeks, the efficacy of the preparations was scored visually in comparison with untreated controls as percentages. For example, • 100% efficacy=plants have died, • 0% efficacy=like untreated control plants.
(§3) Tables C1a to C14b below show the effects of selected compounds of the general formula (I) according to table 1 on various harmful plants at an application rate corresponding to 320 g/ha or less, which were obtained by the experimental procedure mentioned above.

[6] = test system: Matricaria inodora (MATIN); assay: C. Herbicidal pre-emergence efficacy, MATIN; conditions: scored after about 3 weeks
Procedure, shortened: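 Pre-emergence test: formulated compounds sprayed as aqueous suspension or emulsion with 0.5% additive at 600 l/ha onto soil covering sown seeds, at rates corresponding to 320 g/ha or less. After about 3 weeks in greenhouse, efficacy scored visually as percent versus untreated controls (100% = plants dead).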

[7] = test system: Pharbitis purpurea (PHBPU); assay: C. Herbicidal pre-emergence efficacy, PHBPU; conditions: scored after about 3 weeks
Excerpt: as §2, §3

[8] = test system: Zea mays (ZEAMX); assay: D. Pre-emergence effect on useful plants, ZEAMX; conditions: useful plant, application rate 80 g/ha
Procedure, shortened: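 Seeds sown in pots and covered with soil; WP or EC formulations sprayed on the soil surface as aqueous suspension/emulsion with 0.5% additive at 600 l/ha water. Plants grown in greenhouse; crop damage scored visually after about 3 weeks as % versus untreated controls (100% = dead, 0% = like control).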

[9] = test system: Alopecurus myosuroides (ALOMY); assay: E. Herbicidal post-emergence efficacy, ALOMY; conditions: application rate 320 g/ha
Procedure, shortened: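 Visual scoring against untreated plants was done roughly 3 weeks after spraying (0% = no effect, 100% = plants dead). Spray application at 320 g/ha or lower, 600 l/ha water with 0.5% additive, was made onto green parts of one-leaf-stage greenhouse plants grown 2-3 weeks in sandy loam.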

[10] = test system: Zea mays (ZEAMX); assay: F. Post-emergence effect on useful plants, ZEAMX; conditions: useful plant, application rate 80 g/ha
Procedure, shortened: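 Visual efficacy rating versus untreated plants, from 0% (no effect) to 100% (plants died), made about 3 weeks after post-emergence treatment. Formulated compounds (WP or EC, 0.5% additive, 600 l/ha water) were sprayed onto greenhouse-grown crops at the one-leaf stage, 2-3 weeks after sowing.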

Row | SMILES | Pre-emergence efficacy against ALOMY ([1]; 320 g/ha) [%] | Pre-emergence efficacy against ALOMY ([1]; 1280 g/ha) [%] | Post-emergence efficacy against ALOMY in % ([2]; 1280 g/ha) [%] | Post-emergence efficacy against ECHCG in % ([3]; 320 g/ha) [%] | Post-emergence efficacy against ECHCG in % ([3]; 1280 g/ha) [%] | Post-emergence efficacy against LOLRI ([4]; 320 g/ha) [%] | Post-emergence efficacy against LOLRI ([4]; 1280 g/ha) [%] | Pre-emergence efficacy against AVEFA [5] [%] | Pre-emergence efficacy against MATIN ([6]; 80 g/ha) [%] | Pre-emergence efficacy against MATIN ([6]; 320 g/ha) [%] | Pre-emergence efficacy against PHBPU ([7]; 80 g/ha) [%] | Pre-emergence efficacy against PHBPU ([7]; 320 g/ha) [%] | Pre-emergence efficacy against ZEAMX in % [8] [%] | Post-emergence efficacy against ALOMY in % [9] [%] | Post-emergence efficacy against ZEAMX in % [10] [%] | Post-emergence efficacy against ALOMY in % ([2]; 320 g/ha) [%] | Post-emergence efficacy against ECHCG in % ([3]; 80 g/ha) [%]
1 | O=S(=O)(CCC(F)(F)F)Oc1c(F)cccc1Oc1ncc(Cl)cn1 [Example I-48] | 90 | 90 | 90 | 90 | 90 | 90 | 90 | 100 | 100 | 100 | 100 | 100 | 0 | 100 | 0 |  | 
2 | O=S(=O)(CCCCl)Oc1ccccc1Oc1ncc(Cl)cn1 [Example I-2] | 100 | 100 | 90 | 100 | 100 |  | 90 | 100 |  | 100 |  | 90 |  | 90 | 20 | 90 | 90
